Like-named read-outs stand apart in the source and are kept apart here.
Assays:
[1] = molecular target: EhCS1 (Entamoeba histolytica, UniProt O15570); assay: CS inhibitory activity, recombinant EhCS1 (acid-ninhydrin cysteine detection); type: biochemical
Procedure: (§1) The E. coli BL21 (DE3) cell introduced pET-EhCS (CS1, CS3) construct was used for protein expression. Each EhCSs protein was expressed by 1 mM isopropyl β-D-thiogalactopyranoside induction for 12 h at 30°C. After induction, the E. coli cell was harvested and re-suspended in the lysis buffer (50 mM Tris-HCl, pH 8.0, and 300 mM NaCl) containing 0.5 mM phenylmethylsulfonyl fluoride. The suspension was sonicated and centrifuged at 24,000 ×g for 30 min at 4°C. The histidine-tagged rEhCS proteins were purified from the supernatant fraction using a Ni^2+-NTA column and tagged proteins were eluted with 100–200 mM imidazole in 50 mM Tris-HCl, pH 8.0, and 300 mM NaCl. […].
(§2) For measurement of CS inhibitory activity, 10 μl of sample solution [dimethylsulfoxide (DMSO)/H2O = 1/1 solution] and 30 μl of reaction mixture, composed of 2 μl of 50 mM O-acetyL-L-serine, 2 μl of 50 mM Na2S, 12.5 μl of 200 mM Tris-HCl (pH 7.5), and 13.5 μl of water, was poured into each well of a flat-bottom 96-well plate. After 10 μl of enzyme solution (containing 0.1 μg of rEhCS1 or rEhCS3 in H2O) was added to each well, plates were incubated for 15 min at 37°C. The final concentrations of reagents in each well are; 2 mM O-acetyL-L-serine, 2 mM Na2S, and 50 mM Tris-HCl. The enzymatic reaction was stopped by adding 50 μl of acetic acid (>99.9%), and subsequently the reaction for cysteine detection was started by adding 50 μl of acid-ninhydrin reagent ([Gaitonde, 1967]). The mixture in each well was transferred to a 96-well PCR plate and heated at 95°C for 10 min. After the plate was cooled on ice, the mixture was transferred into a flat-bottom 96-well plate filled with 100 μl of ethanol (EtOH). Absorbance at 560 nm was measured by spectrophotometer (SH-9000Lab, Corona Electric, Ibaraki, Japan). […] To determine whether the sample interferes the acid-ninhydrin reagent reaction, 10 μl of sample solution, 10 μl of water, and 30 μl of 1 mM cysteine solution (cysteine hydrochloric acid salt in water) were mixed in a well of 96-well microtiter plate, and then 50 μl of acetic acid (>99.9%) and 50 μl of acid-ninhydrin reagent were added. The mixture was treated and measured the absorbance at 560 nm as above mentioned to check the effect of the sample to the color reaction.
(§3) Each 5 μl of DMSO solution (1 mg/ml, final concentration 100 μg/ml) of 316 library compounds and 5 μl of water (total 10 μl of DMSO/H2O = 1/1 solution per well) were poured into each well of a 96-well microtiter plate to screen for CS inhibitors. For screening microbial broths, 10 μl of the individual broth extract samples (50% EtOH solution) were poured into each well of a 96-well microtiter plate and dried up in vacuo. After drying, 10 μl of DMSO/H2O = 1/1 solution was added and dissolved. Samples showing more than 50% inhibitory activity and having no inhibitory activities against acid ninhydrin reaction were selected for further evaluation. The inhibition values were measured in duplicate or triplicate. […]; 2.0 to 250 μg/ml for deacetylkinamycin C, deoxyfrenolicin, nanaomycin A, tetracycline and patulin; 1.5 to 200 μg/ml for naphthacemycin A9; 3.1 to 400 μg/ml for xanthofulvin, terreinol and citromycetin; 0.06 to 200 μg/ml for exophillic acid.

[2] = molecular target: EhCS3 (Entamoeba histolytica, UniProt Q401L7); assay: CS inhibitory activity, recombinant EhCS3 (acid-ninhydrin cysteine detection); type: biochemical
Sequence of EhCS3 (Q401L7 entry or part of it): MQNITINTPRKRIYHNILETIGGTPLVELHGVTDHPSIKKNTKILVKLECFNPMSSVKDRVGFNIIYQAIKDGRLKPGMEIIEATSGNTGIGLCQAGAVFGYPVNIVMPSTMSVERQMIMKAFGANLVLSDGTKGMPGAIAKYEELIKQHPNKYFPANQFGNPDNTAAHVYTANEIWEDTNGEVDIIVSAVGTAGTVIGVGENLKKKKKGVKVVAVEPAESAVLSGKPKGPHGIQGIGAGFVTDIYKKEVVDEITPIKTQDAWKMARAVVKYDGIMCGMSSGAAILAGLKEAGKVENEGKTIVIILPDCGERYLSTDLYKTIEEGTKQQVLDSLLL
Procedure: as §1, §2, §3

[3] = Cytotoxicity against MRC-5 cells (WST-8); type: cell-based; conditions: human fibroblast cells MRC-5, 2 days
Procedure: (§4) Human fibroblast cells, MRC-5, were plated on 96-well flat bottom plates at a density of 1.5 × 10^4 cells/well with 100 μl of MEM medium (Life Technologies, Grand Islands, NY, USA) containing 10% fetal bovine serum (Hana-nesco Bio, Tokyo, Japan) and 1% penicillin-streptomycin (Life Technologies) and incubated at 37°C with 5% CO2 for 2 days. Test compounds in 5 μl of 50% DMSO–H2O and 100 μl of MEM medium were mixed and added to each well. After 2 days cultivation at 37°C with 5% CO2, cell density and morphological changes were observed under a microscope. After observation, 10 μl of WST-8 solution (Dojindo, Kumamoto, Japan) was added to the cells and the plate was incubated at 37°C with 5% CO2 for 2 h. Then, absorbance at 450 nm was measured by spectrophotometer (SH-9000Lab, Corona Electric). Cytotoxicity was measured in duplicate. Staurosporine (our product, in Kitasato Natural Products Library) was used as a positive (cytotoxic) compound. […]; 0.075 to 10 μg/ml for deacetylkinamycin C, deoxyfrenolicin, nanaomycin A, and naphthacemycin A9; 3.1 to 200 μg/ml for tetracycline and patulin; 9.4 to 75 μg/ml for exophillic acid. IC50 values were calculated by the equation described in the reference ([Arita-Morioka et al., 2015]).

[4] = tested on: E. histolytica clonal strain HM-1:IMSS cl6 trophozoites; assay: In vitro anti-amebic activity against trophozoites (WST-1 viability); conditions: 48 h
Procedure: Trophozoites were harvested in 3–4 days after inoculation of 1/30 to 1/12 of the total culture volume. After the cultures were chilled on ice for 5 min, trophozoites were collected by centrifugation at 500 ×g for 10 min at 4°C and washed twice with BI-S-33 medium. The obtained trophozoites were suspended in BI-S-33 medium and approximately 1 × 10^4 trophozoites in 200 μl of BI-S-33 medium were poured into each well of a 96-well plate and incubated for 2 h. Subsequently, the medium was removed and 200 μl of BI-S-33 medium or cysteine-deprived BI-S-33 medium containing 1% (v/v) penicillin/streptomycin (Life Technologies) together with test compounds (final concentrations; 0.1, 1, 10, 100 μg/ml for kerriamycin B, kerriamycin C, aggreticin, and xanthofulvin; 0.1, 1, 10, 50, 100 μg/ml for the other compounds) was added to each well and incubated under anaerobic conditions for 48 h. After incubation, the medium was removed and 90 μl of pre-warmed Opti-MEM I (Life Technologies) and 10 μl of WST-1 solution (Dojindo) were added to each well. Viability of trophozoites was detected with absorbance at 450 nm (SH-9000Lab, Corona Electric). Cytotoxicity was measured in triplicate. […] Metronidazole (Sigma–Aldrich, MO, USA) was used as positive control.

[5] = tested on: semaphorin; set-up: method as in Kumagai et al., 2003; conditions: ref Kumagai et al., 2003; cited from earlier work
[6] = tested on: MRC-5 cells; assay: Cytotoxicity against MRC-5 cells (WST-8); type: cell-based; conditions: human fibroblast cells MRC-5, 2 days
Procedure: as §4

[7] = recombinant EhCS1, 15 min at 37°C, 2 mM O-acetyl-L-serine, 2 mM Na2S, read-out: IC50 CS1
[8] = recombinant EhCS3, 15 min at 37°C, 2 mM O-acetyl-L-serine, 2 mM Na2S, read-out: IC50 CS3
[9] = Entamoeba histolytica, read-out: Cytotoxicity against Entamoeba histolytica IC50, Cys (+)
[10] = Entamoeba histolytica, read-out: Cytotoxicity against Entamoeba histolytica IC50, Cys (–)

Sequence of EhCS1 (O15570 entry or part of it): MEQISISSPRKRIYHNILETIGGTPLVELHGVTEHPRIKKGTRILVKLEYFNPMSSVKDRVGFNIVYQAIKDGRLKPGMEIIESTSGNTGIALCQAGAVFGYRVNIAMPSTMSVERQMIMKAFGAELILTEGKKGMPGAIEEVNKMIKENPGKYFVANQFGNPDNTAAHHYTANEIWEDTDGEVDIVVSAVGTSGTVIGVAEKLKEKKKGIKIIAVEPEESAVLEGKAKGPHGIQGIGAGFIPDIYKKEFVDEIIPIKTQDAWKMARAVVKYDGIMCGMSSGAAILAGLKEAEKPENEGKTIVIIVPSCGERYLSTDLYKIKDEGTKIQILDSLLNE

| Compound | IC50 [1, 7] | IC50 [2, 8] | IC50 at 2 days [3] | IC50 [4, 9] | IC50 [4, 10] | other results |
| --- | --- | --- | --- | --- | --- | --- |
| Cc1cc(=O)c2c(o1)-c1c(cc(O)c(O)c1C(=O)O)OC2 [Citromycetin] | > 1400 µM | > 1400 µM | – | – | – | – |
| CCCCCCCCCc1cc(OC(=O)c2c(CCCCCCCCC)cc(O)cc2O[C@@H]2O[C@H](CO)[C@@H](O)[C@H](O)[C@H]2O)cc(O)c1C(=O)O [Exophillic acid] | 24 ± 2.9 µM | – | > 100 µM | > 140 µM | > 140 µM | inhibition against EhCS3 [2]: no inhibition |
| C[C@@]1(O)[C@H](O)c2c(c3c(=O)c4cccc(O)c4c(=O)c=3c2=[N+]=[N-])[C@H](O)[C@H]1O [Deacetylkinamycin C] | – | – | – | 140 ± 13 µM | 18 ± 10 µM | IC50 [1]: 21 ± 2.4 µM; IC50 [3]: 2.3 ± 0.1 µM; IC50 [2]: 22 ± 3.7 µM |
| C[C@@H]1O[C@@H](O[C@@H]2C[C@H](c3ccc4c(c3O)C(=O)C3=C(C4=O)[C@@]4(O[C@H]5CC[C@H](O)[C@H](C)O5)C(=O)C[C@](C)(O)C[C@@]4(O)C=C3)O[C@H](C)[C@H]2O)CC[C@@H]1O [Aggreticin] | 0.98 ± 0.05 µM | 0.64 ± 0.1 µM | 23 ± 0.6 µM | 54 ± 4.8 µM | 18 ± 0.7 µM | – |
| Kerriamycin B | 0.63 ± 0.07 µM | 0.31 ± 0.01 µM | – | – | – | IC50 [6]: 21 ± 0.4 µM; IC50 ([4]; read-out: Cytotoxicity against Entamoeba histolytica IC50, Cys (+), BI-S-33 medium with cysteine, anaerobic): 26 ± 1.5 µM; IC50 ([4]; read-out: Cytotoxicity against Entamoeba histolytica IC50, Cys (–), cysteine-deprived BI-S-33 medium, anaerobic): 23 ± 0.3 µM |
| O=C1C=C2C(=CCOC2O)O1 (centres unmarked) [Patulin] | – | – | 110 ± 4.6 µM | > 650 µM | 110 ± 12 µM | IC50 [1]: 490 ± 81 µM; IC50 [2]: 470 ± 37 µM |
| CCC[C@H]1O[C@H](CC(=O)O)CC2=C1C(=O)c1c(O)cccc1C2=O [Deoxyfrenolicin] | 57 ± 2 µM | 53 ± 1.1 µM | 4.7 ± 0.2 µM | 1.3 ± 0.04 µM | 0.5 ± 0.1 µM | – |
| CN(C)[C@@H]1C(O)=C(C(N)=O)C(=O)[C@@]2(O)C(O)=C3C(=O)c4c(O)cccc4[C@@](C)(O)[C@H]3C[C@@H]12 [Tetracycline, reference compound] | – | – | 430 ± 4.3 µM | – | – | IC50 [1]: 170 ± 16 µM; IC50 [2]: 190 ± 9.5 µM |

Second part, led by results:

| IC50 [1, 7] | IC50 [2, 8] | Compound | IC50 at 2 days [3] | IC50 [4, 9] | IC50 [4, 10] | other results |
| --- | --- | --- | --- | --- | --- | --- |
| 53 ± 3.9 µM | 65 ± 4.4 µM | C[C@@H]1O[C@@H](CC(=O)O)CC2=C1C(=O)c1c(O)cccc1C2=O [Nanaomycin A] | 0.7 ± 0.04 µM | 12 ± 0.4 µM | 0.8 ± 0.04 µM | – |
| > 1600 µM | > 1600 µM | Cc1c(O)cc2c(c1O)CO[C@@]1(CCCO1)C2=O [Terreinol] | – | – | – | – |
| 7.9 ± 1.3 µM | 110 ± 8.2 µM | CC(=O)c1c(C)c(/C(O)=C2\COc3cc(O)c(O)c(C(=O)O)c3C2=O)cc2c(=O)c3c(C(=O)O)c(O)c(O)cc3oc12 [Xanthofulvin] | – | > 170 µM | > 170 µM | semaphorin inhibitor IC50 [5]: 0.09 µg/mL |
| 75 ± 1.8 µM | > 490 µM | COc1cc(C)c(-c2cc(OC)cc3c2C(=O)C2=C(C3=O)C(C)(C)c3cc(O)cc(O)c3C2=O)c(OC)c1 [Naphthacemycin A9] | 16 ± 0.6 µM | > 390 µM | > 390 µM | inhibition of EhCS3 (in words) [2]: no inhibition |

Source: PMC4568418, “Identification of natural inhibitors of Entamoeba histolytica cysteine synthase from microbial secondary metabolites” (Frontiers in Microbiology, 2015)
